Ends that are not written are not given here.
Experiment: Vx006 solubilisation in solvents for injection
Assay type: physicochemical
Settings: in water for injection
Description: For vaccinating a patient, 1 ml of solvent is added on the lyocake to resuspend the peptide, 0.7 ml of peptide in solution is then loaded in a silicone free syringe and 0.7 ml of MONTANIDE ISA51VG in a second syringe. Both syringes are then connected to the I-connector for the emulsification protocol.
According to SEPPIC recommendations, to the fact that the emulsion is performed for human administration (preventing the use of solvents as DMSO etc.), results presented in Example 1 above and solubility prediction, Vx006 was initially diluted in saline buffer. Two saline solvents were tested, NaCl 0.9% and PBS. […] Moreover, the addition of several solvents developed by Seppic and compatible with injection in humans and emulsion with MONTANIDE were tested during the Vx006 manufacturing development.
The vial can be gently agitated to accelerate the dissolution, if necessary. The dissolution can also be performed at cold temperature (0-10° C.).

With YLQVNSLQTVYLEYRQVPVYLEEITGYL [Vx006] as the sequence, how does the Solubility read?
Its Solubility is “perfectly soluble”.

And the “pH of the solubilised peptide” value?
The value was “around 7”.
